Measured values taken from patent US20230407304A1, “USE OF MICRORNA INHIBITION TO PREVENT AND TREAT OSTEOARTHRITIS AND OTHER INFLAMMATORY DISEASES” (VIRGINIA COMMONWEALTH UNIVERSITY, priority 2020, published 2023).
Several values for one entry are separate records, joined by “and”; a condition that tells them apart may be missing. Identical values can stand only once.

How the values were obtained:
[1] = tested on: unilateral ACLT model of OA; conditions: four weeks following ACLT surgery, previous work (Boyan et al.); cited from earlier work
[2] = tested on: bilateral ACLT model of OA in Sprague Dawley rats; assay: Severe model of OA: bilateral ACLT, weekly intra-articular 24R,25 injections; type: in vivo, rat; conditions: 10 weeks
Protocol: The second study created a more severe model of OA by performing bilateral ACLTs, using the experimental design shown in FIG. 2B. Treatment groups had n=8 plus 1 extra animal in case of morbidity or mortality. Nine animals were sedated using 2-4% isoflurane anesthesia in 400 mL/min O2 to effect. Bilateral anterior cruciate ligament transections were performed by medially translocating the patellar tendon in order to visualize and transect the ACL. Left legs received vehicle injections and right legs received 24R,25 injections once weekly using the same injection regimen outlined for the previous study. Animals were killed 70 days post-ACLT, and serum and hind-limbs were collected.
24R,25(OH)2D3 was obtained from Enzo Life Sciences (Plymouth Meeting, PA) and dissolved in ethanol at a stock concentration of 10^−4 M in accordance with a previously established protocol (see Boyan et al. PLoS One. 2016; 11(8):e0161782). 40 μL of stock 24R,25 was dissolved in 10 mL sterile 1×PBS to create a final treatment concentration of 4×10^−7 M 24R,25. All animals received injections of 25 μL of 4×10^−7 M 24R,25 in right legs or vehicle (40 μL ethanol dissolved in sterile 1×PBS to a final concentration of 0.4%) in left legs once a week for 70 days based on a previously established protocol (see Boyan et al., supra).
Samples were decalcified for 7 days using Decal™ (StatLab Medical Products, Mckinney, TX), rinsed in running DI water for 15 mins, dehydrated in a series of 70-100% ethanol and xylene washes, and embedded with Richard-Allan Scientific Histoplast Paraffin (VWR, Radnor, PA). 5 μm sections were cut every 100-200 μm throughout the joint using a manual microtome (Shandon Finesse 325, Thermo Scientific) and stained using hematoxylin and eosin (H&E), toluidine blue, or Masson's trichrome. Samples were imaged using Zen 2012 Blue Edition software with an AxioCam MRc5 camera and Axio Observer Z.1 microscope (Carl Zeiss Microscopy, Oberkochen, Germany).
The articular cartilage area, fibrotic area, and percent healthy subchondral bone were measured using Zen 2012 Blue Edition software. For the unilateral ACLT study: the articular cartilage area was measured on 2-3 slides per sample and the average area for each sample was reported for medial tibias. […] For the bilateral ACLT study, articular cartilage area, fibrotic area, and the percent healthy subchondral bone were measured on one slide per sample for medial femurs. The subchondral bone plate was measured and subdivided into healthy regions (normal cartilage above) and unhealthy regions (subchondral bone remodeling and osteophyte formation, cartilage erosion/delamination). The percent healthy subchondral bone was reported as healthy subchondral bone divided by total subchondral bone*100.
Two blinded reviewers scored histological samples and assigned a grade (0-6.5) to assess OA depth progression into the cartilage and a stage (0-4) to assess the horizontal extent of cartilage involvement along the articulating surface according to the OARSI scoring system guidelines (see Pritzker et al. Osteoarthritis Cartilage. 2006 January; 14(1):13-29). The grade and stage were multiplied together to obtain the OARSI score. The higher the score, the more severe OA present, with a max possible score of 26. […]
Data are represented as mean±standard error. […] Blood serum of day 0 vs day 70 was analyzed used a two-tailed paired t-test using an alpha=0.05. […]

[3] = tested on: unilateral ACLT model of OA in Sprague Dawley rats; assay: Mild model of OA: unilateral ACLT, weekly intra-articular 24R,25 injections; type: in vivo, rat
Protocol: A total of 54 skeletally mature male Sprague-Dawley rats (Envigo, Indianapolis, IN), 9-10 weeks of age, weighing 250-300 g at the study onset, were used for these experiments. All animal procedures were performed according to the National Research Council's Guide for the Care and Use of Laboratory Animals guidelines and approved by Virginia Commonwealth University's Institutional Animal Care and Use Committee. All rats were given ad libitum access to standard pellet and water. Based on a previous study (Scott, supra) using a 30% effect size, 20% variance, and a power of 80%, a two-tail analysis indicated an n=8 per group was necessary to yield statistical significance.
The unilateral ACLT study initially included 45 rats. Each treatment group had n=8 plus 1 extra animal in case of morbidity or mortality. Three rats died resulting in a total of 42 rats in the study. Rats were sedated with 2-4% isoflurane anesthesia in 400 mL/min 02 to effect. Unilateral anterior cruciate ligament transections (ACLT, animals=45) were performed by medially translocating the patellar tendon in order to visualize and transect the ACL to create a […] model of OA. Left legs served at contralateral controls (c-control) while right legs received either […] of vehicle injections or 4×10^−7 M 24R,25(OH)2D3 (24R,2S) injections once a week. Eighteen rats were used to examine a 5-week prophylactic treatment duration while another eighteen rats were used to examine a 10-week prophylactic treatment duration. […] However, 3 animals died in this study resulting in an n=8 for the ACLT rats, for the 5-week vehicle (5W-Veh) treated rats, and the 10-week 24R,25 (10W-24R,25) treated rats. Animals were killed after 70 days. Hind-limbs were collected and micro-CT and histological analyses were performed. […]
The articular cartilage area, fibrotic area, and percent healthy subchondral bone were measured using Zen 2012 Blue Edition software. For the unilateral ACLT study: the articular cartilage area was measured on 2-3 slides per sample and the average area for each sample was reported for medial tibias. […]

[4] = tested on: IL-1β stimulated increases in MMP-13, PGE2, and NO; conditions: cited from earlier work
[5] = tested on: destabilization of the medial meniscus model of OA; conditions: destabilization of the medial meniscus model of OA in mice; literature; cited from earlier work
[6] = tested on: rat articular chondrocytes (rArCs); assay: WNT/β-catenin agonist or antagonist treatment of rArCs with or without IL-1β; type: cell-based; conditions: compound alone (LiCl 5 mM and 10 mM; XAV 0.5, 1 μM)
[7] = tested on: rat articular chondrocytes (rArCs); assay: WNT/β-catenin agonist or antagonist treatment of rArCs with or without TNF-α; type: cell-based; conditions: compound plus 10 ng/mL TNF-α
[8] = bilateral ACLT, 24R,25 vs vehicle limbs
[9] = 10W 24R,25 vs 10W-Veh vs ACLT alone

SMILES | OA progression [1] | OARSI score (average) ([2]; bilateral ACLT, 24R,25 once weekly, day 70) | articular cartilage area, medial femurs (histomorphometric analysis) ([2]; bilateral ACLT, 24R,25 right legs vs vehicle left legs, once weekly) | fibrotic area, medial femurs [2, 8] | percent healthy subchondral bone, medial femurs [2, 8] | mitigation of OA progression / OA severity ([2]; severe (bilateral ACLT) model) | cartilage area by histomorphometric analysis, medial tibias [3, 9] | micro-CT cartilage volume, medial and lateral tibia [3, 9] | mean OARSI score, medial tibias ([3]; unilateral ACLT, 4×10^−7 M 24R,25 once a week for 10 weeks, day 70, max possible score 26) | IL-1β stimulated increases in MMP-13, PGE2, and NO [4] | cartilage degradation [5] | total DNA [6] | total DNA [7]
C=C1CC[C@H](O)C/C1=C/C=C1\CCC[C@]2(C)[C@@H]([C@H](C)CC[C@@H](O)C(C)(C)O)CC[C@@H]12 [24R,25, 24R,25-Dihydroxyvitamin D3] | mitigated OA progression | 16.61 and 15 | significantly less articular cartilage area compared to vehicle limbs | equivalent amount | equivalent amount | did not provide evidence of mitigation of OA progression | no difference in cartilage area | no difference in cartilage volume between groups | 5.11 | able to prevent |  |  | 
Oc1nc(-c2ccc(C(F)(F)F)cc2)nc2c1CSCC2 [XAV, XAV-939] |  |  |  |  |  |  |  |  |  |  | reduced cartilage degradation | this was not seen | decrease in total DNA
